From US20250186461A1, “METHODS AND COMPOSITIONS FOR TREATING AND/OR PREVENTING HERNIAS” (Northwestern University, priority 2023, published 2025)
Entries after “also recorded” stand apart in the source; their conditions may differ.

What was measured:
Arom^hum mice = experiment: Halting progression of small/medium-sized hernias in Arom^hum mice; format: in vivo, mouse; conditions: 12-week treatment started when small/medium-sized hernias were formed, n=10, vs placebo
Description: The treatment started when small/medium-sized hernias were formed. ****p<0.0001.
Hernias will be classified as small, medium, or large if the bulging area through muscle tissue is 125-175 mm^2, 175-225 mm^2, or >225 mm^2, respectively. […] We will assess whether muscle fibrosis, atrophy, and hernia are arrested or reversed. […] Hernia size will be measured. After completion of treatment, the mice will be dissected, and LAM, UAM (control), and serum will be collected. A total of 100 mg of tissue (LAM and UAM) will be obtained and frozen for measurement of tissue E2/P4. Circulating and tissue E2/P4 levels will be measured using LC-MS^2. We will use immunoblotting and IHC to determine PGR expression in LAM and UAM tissues. PGR target gene expression (Greb1, Cyp7b1) will be measured in paraformaldehyde-fixed LAM tissues using RNAScope and IHC. […] We will continue to complete the rest of the proposed study in this subaim. We will also assess whether muscle fibrosis, atrophy, and large hernia are halted.

WT mice = experiment: E2/P4-induced hernia formation in WT mice; format: in vivo, mouse; conditions: WT male mice, concurrent treatment with P4+E2
Source text: All placebo-treated Arom^hum mice developed hernias starting from 5 weeks of age. None of the WT littermates developed hernias. […] The mouse scrotum is connected to the peritoneal cavity with a narrow funicular (or inguinal) canal, with walls composed of LAM tissue. Structurally normal LAM tissue is essential to maintain the tone of this canal and prevent herniation of the bowel.
Experiment 1a1: Does the addition of P4 to E2 treatment accelerate LAM fibrosis and hernia formation in WT mice? It was shown that treatment of male WT mice with extremely high doses of systemic estrogens starting around or after the onset of puberty caused inguinal hernia in one third to half of these animals^23-25. We hypothesize that this effect is primarily mediated by the E2 induction of PGR expression in LAM fibroblasts. Male mice have readily detectable P4 levels in the circulation and LAM tissue to activate PGR in LAM fibroblasts (FIG. 6). If this were true, the addition of pharmacologic quantities of P4 (75 mg/pellet for 12-week release)^73 to E2 (0.3 mg/pellet for 12-week release)^23-25 in WT mice should accelerate this phenotype. Our ongoing preliminary study, whereby a 6-week treatment with P4+E2 induced large inguinal hernia in all WT mice (FIG. 7A), supports the following experiment. Long-term (8 weeks or longer) treatment with E2 only is anticipated to cause hernias in up to half of WT mice based on previous findings^23-25. We will determine whether P4+E2 treatment over 12 weeks will give rise to larger hernias in a higher number of mice compared with E2-only treatment. […] See Statistical Methods above for sample size calculation. Hernia surface area will be measured using a digital caliper and calculated as previously described (length×width)^19. At the designated endpoints, LAM and UAM (control) from each mouse will be resected, with one-half of the tissue snap-frozen in liquid nitrogen, and the other half fixed in 4% phosphate-buffered paraformaldehyde for histological and IHC analyses (see below). […]

[1] = system: LAM fibroblasts from Arom^hum mice; experiment: Click-iT EdU proliferation assay; format: cell-based, mouse; conditions: 1 μM antagonist; E2 (10 nM)+R5020 (100 nM)
PGR = molecular target: T1, PGR (Homo sapiens, UniProt P06401); conditions: cited from earlier work
T1 sequence (P06401 1-933): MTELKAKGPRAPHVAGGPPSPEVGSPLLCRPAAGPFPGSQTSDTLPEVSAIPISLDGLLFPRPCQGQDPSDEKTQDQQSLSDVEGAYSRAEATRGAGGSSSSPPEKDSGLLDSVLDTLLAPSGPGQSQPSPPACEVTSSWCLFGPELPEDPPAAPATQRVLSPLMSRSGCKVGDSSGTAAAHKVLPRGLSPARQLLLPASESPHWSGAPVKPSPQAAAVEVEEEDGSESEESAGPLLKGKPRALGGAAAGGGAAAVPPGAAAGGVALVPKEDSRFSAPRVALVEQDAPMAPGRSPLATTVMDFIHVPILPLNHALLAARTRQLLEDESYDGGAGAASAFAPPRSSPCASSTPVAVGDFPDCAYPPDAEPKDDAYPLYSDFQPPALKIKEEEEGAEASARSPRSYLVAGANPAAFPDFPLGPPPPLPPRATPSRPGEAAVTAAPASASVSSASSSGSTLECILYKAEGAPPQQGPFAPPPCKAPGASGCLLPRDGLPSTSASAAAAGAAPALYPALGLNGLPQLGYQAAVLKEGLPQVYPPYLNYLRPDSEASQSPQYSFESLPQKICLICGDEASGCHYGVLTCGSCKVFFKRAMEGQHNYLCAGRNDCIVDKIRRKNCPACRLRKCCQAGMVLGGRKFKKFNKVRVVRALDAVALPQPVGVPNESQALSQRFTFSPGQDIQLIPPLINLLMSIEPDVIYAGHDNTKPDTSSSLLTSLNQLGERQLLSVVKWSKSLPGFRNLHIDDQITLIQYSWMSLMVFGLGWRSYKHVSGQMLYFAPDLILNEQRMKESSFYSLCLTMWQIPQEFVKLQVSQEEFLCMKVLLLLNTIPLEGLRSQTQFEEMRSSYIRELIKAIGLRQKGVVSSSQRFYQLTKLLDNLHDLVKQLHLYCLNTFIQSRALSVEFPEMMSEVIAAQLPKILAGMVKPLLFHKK

Structure (SMILES)	progression (growth) of small/medium-sized hernias, hernia area (Arom^hum mice)	prevention of P4+E2-induced large hernias (WT mice)	inhibition of E2+R5020-stimulated LAM fibroblast proliferation [1]	P4/PGR antagonism and PGR selectivity (PGR)
CC#C[C@]1(O)CC[C@H]2[C@@H]3CCC4=CC(=O)CCC4=C3[C@@H](c3ccc(N(C)C)cc3)C[C@@]21C [RU486, Mifepristone]	halted the progression of small/medium-sized hernias in Arom^hum mice; also recorded: halted the growth of small- and medium-size hernias in all treated Arom^hum mice	completely prevented	inhibited; also recorded: blocked	
CC(=O)O[C@]1(C(C)=O)CC[C@H]2[C@@H]3CCC4=CC(=O)CCC4=C3[C@@H](c3ccc(N(C)C)cc3)C[C@@]21C [UPA, Ulipristal acetate]	halted the progression of small/medium-sized hernias in Arom^hum mice; also recorded: halted the growth of small- and medium-size hernias in all treated Arom^hum mice		inhibited; also recorded: blocked	very high PGR selectivity
